Holding throughout (assay type): cell-based
In assay [1] the target is T1, glucocorticoid receptor (Homo sapiens, UniProt P04150).
T1 sequence (P04150 524-777 limits assumed): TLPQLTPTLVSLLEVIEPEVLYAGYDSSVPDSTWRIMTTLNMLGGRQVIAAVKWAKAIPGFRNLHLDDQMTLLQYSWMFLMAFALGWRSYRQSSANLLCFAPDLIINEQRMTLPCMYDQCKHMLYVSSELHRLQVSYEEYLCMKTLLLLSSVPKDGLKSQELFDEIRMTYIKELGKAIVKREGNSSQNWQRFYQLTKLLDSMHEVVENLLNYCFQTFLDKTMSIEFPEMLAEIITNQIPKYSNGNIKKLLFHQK
In words: GRE reporter gene test (Experiment Example 2), HEK293T cells transfected with pGL4.35 and p-Bind GR Vector. Particulars: for EC50: GRE reporter gene, HEK293T cells, 18-20 h incubation; for Emax: HEK-293T. On the procedure: The compound of the present invention to be tested was formulated into a 1 mM solution with DMSO, and then subjected to 4-fold dilution at 10 concentration points using DMSO to obtain a 1000× mother liquor, with a final test concentration of 0.0000038-1 μM.
(§1) HEK293T cells (ATCC) were plated in a 100 mm culture dish at a density of 6*10^6 cells/culture dish, and cultured for 16 h under the conditions of 37° C. and 5% CO2. Plasmids (pGL4.35 [luc2P/9XGAL4 UAS/Hygro], p-Bind GR Vector, Promega) and Lipofectamine® 3000 (Invitrogen) were mixed, added into the culture dish, and then incubated for 5-6 h under the conditions of 37° C. and 5% CO2.
In a 384-well plate (PerkinElmer), 25 nL of the compound mother liquor was added, and then HEK293T cells transfected with plasmids were added at a density of 18000 cells/well (25 μL). The cells were incubated for 18-20 h under the conditions of 37° C. and 5% CO2.
After the incubation was ended, 25 μL of britelite plus luciferase assay reagent (PerkinElmer) was added, and then reading was performed using an Envision 2105 multimode reader (PerkinElmer).
(§2) The activity was calculated using the following formula, % activity=100*(signal of compound well−average signal of negative control well)/(average signal of positive control well−average signal of negative control well). […] Fitting calculation of EC50 was performed on % activity and the logarithmic concentration of the compound using Graphpad 8.0, Y=Bottom+(Top−Bottom)/(1+10^((Log EC50−X)*HillSlope)), wherein Y is % activity, and X is the logarithmic concentration of the compound.
A general note: A reporter such as luciferase makes a cellular process visible.

The target of assay [2] is T2, glucocorticoid receptor (Homo sapiens, UniProt P04150).
T2 sequence (P04150 1-777): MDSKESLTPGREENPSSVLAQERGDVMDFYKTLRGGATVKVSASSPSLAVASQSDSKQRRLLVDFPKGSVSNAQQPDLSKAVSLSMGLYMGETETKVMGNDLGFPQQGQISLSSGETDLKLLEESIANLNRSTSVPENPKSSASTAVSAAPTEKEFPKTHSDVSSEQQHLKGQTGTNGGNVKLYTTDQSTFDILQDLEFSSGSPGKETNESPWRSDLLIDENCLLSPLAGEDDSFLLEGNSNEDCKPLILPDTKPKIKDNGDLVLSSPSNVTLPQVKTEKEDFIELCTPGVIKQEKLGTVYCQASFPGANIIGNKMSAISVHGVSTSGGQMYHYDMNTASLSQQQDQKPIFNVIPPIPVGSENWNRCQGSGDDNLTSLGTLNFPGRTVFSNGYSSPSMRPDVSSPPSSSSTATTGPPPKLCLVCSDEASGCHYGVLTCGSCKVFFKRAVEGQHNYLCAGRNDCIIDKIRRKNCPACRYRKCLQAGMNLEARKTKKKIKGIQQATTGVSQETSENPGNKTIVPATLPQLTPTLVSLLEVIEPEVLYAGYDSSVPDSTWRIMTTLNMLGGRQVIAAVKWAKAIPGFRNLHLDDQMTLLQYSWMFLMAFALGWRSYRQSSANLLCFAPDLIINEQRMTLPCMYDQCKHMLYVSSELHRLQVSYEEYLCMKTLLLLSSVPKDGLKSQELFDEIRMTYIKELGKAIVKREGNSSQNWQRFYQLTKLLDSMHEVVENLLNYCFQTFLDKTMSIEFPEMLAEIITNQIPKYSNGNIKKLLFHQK
Briefly: In vitro activation activity of the glucocorticoid on the glucocorticoid receptor in Hela-MMTV luciferase reporter cells. Particulars: 48 hours; for EC50: Hela-MMTV luciferase reporter cells; for in vitro activation activity on the glucocorticoid receptor in the cells: Hela-MMTV cells, compared with comparative compound 1. On the procedure:
The activation activity of the glucocorticoid on glucocorticoid receptor was tested in the constructed Hela-MMTV luciferase reporter system cells. Adherent Hela-MMTV cells were digested using a Trypsin-EDTA (0.25%) solution, counted, and the cells in a required number were resuspended in complete medium (1640+10% FBS). The cells were then plated in a 96-well cell culture plate at 10,000 cells/100 μl. The glucocorticoid was diluted in complete medium, starting at a final concentration of 75 nM, followed by 5-fold gradient dilution, and was added to the plated cells at 100 μl per well. The cells were incubated in a cell culture incubator at 37° C. for 48 hours. Then Bio-Lite luciferase assay reagent (Vazyme DD1201-03) was added to the cells at 20 μl per well, followed by homogeneously shaking for 10 minutes, and luminescence readings were obtained using a microplate reader. The data were imported into GraphPad Prism 8 software to calculate the EC50 value.

In assay [3] the test system is mouse B cells. Briefly: In vitro inhibition of the proliferation of mouse B cells by the glucocorticoid. Particulars: 4 days; for in-vitro inhibitory activity on the proliferation of mouse B cells: LPS 5 μg/ml, ranking of the compounds; for IC50: B-cell, 96 h, LPS 5 μg/ml stimulated mouse spleen B cells, live cells by flow cytometry. On the procedure:
According to instructions of the EasySEP mouse panB cell sorting kit (Stemcell/1984/1×100e9 cells), B cells were isolated from mouse spleen cells. After obtaining the B cells, they were resuspended in complete medium (1640+10% FBS+50 uM β-mercaptoethanol), and added to a 96-well cell culture plate at 1E5 cells/100 μL per well. 4×LPS (20 μg/ml) was prepared, and add to the plated cells at 50 μL per well, with a final concentration of 5 μg/ml. The glucocorticoid was diluted with complete medium in a 5-fold gradient, starting at a final concentration of 20 nM, and added to the plated cells at 50 μL per well. The cells were incubated in a 37° C. cell culture incubator for 4 days. Then PI was added to the cells for dead cell staining, and the number of live cells was detected by flow cytometry. The cell viability was calculated using the number of live cells in the untreated wells as the denominator. The cell viability values was imported into the GraphPad Prism 8 software to calculate IC50. The structure of the comparative compound 1 is as follows: […]

Assay [4] concerns the target T1, glucocorticoid receptor. Briefly: GRE reporter gene test (Experiment Example 1), HEK293T cells transfected with pGL4.35 and p-Bind GR Vector. On the procedure: The compound of the present invention to be tested was formulated into a 10 mM solution with DMSO, and then subjected to 4-fold dilution at 10 concentration points using DMSO to obtain a 1000× mother liquor, with a final test concentration of 0.000038-10 μM.
as §1
In a 384-well plate (PerkinElmer), 25 nL of the compound mother liquor was added, and then HEK293T cells transfected with plasmids were added at a density of 18000 cells/well. The cells were incubated for 18-20 h under the conditions of 37° C. and 5% CO2.
After the incubation was ended, 25 μL of britelite plus luciferase assay reagent (PerkinElmer) was added, and then reading was performed using an Envision 2105 multiplate reader (PerkinElmer).
as §2

Where [5] appears, read: compared with dexamethasone, transfected HEK293T cells.

SMILES strings stand for the structures.

One may read the EC50 as the concentration giving half of the maximal effect. In general, Emax refers to the size of the effect at its maximum, as opposed to the concentration needed. Regarding `C[C@H](O)CC(=O)O[C@]1(C(=O)SCF)[C@H](C)C[C@H]2[C@@H]3C[C@H](F)C4=CC(=O)C=C[C@]4(C)[C@@]3(F)[C@@H](O)C[C@@]21C` [D-15, (6S,8S,9R,10S,11S,13S,14S,16R,17R)-6,9-difluoro-17-(((fluoromethyl)thio)carbonyl)-11-hydroxy-10,13,16-trimethyl-3-oxo-6,7,8,9,10,11,12,13,14,15,16,17-dodecahydro-3H-cyclopenta[a]phenanthren-17-yl (S)-3-hydroxybutyrate], the EC50 in assay [1] was found to be 1.4 nM; in assay [2], 0.074 nM. Further, the Emax in assay [1] worked out at 102%.

On to `C[C@H]1C[C@@]2(C)[C@@H](C[C@H]3O[C@@H](c4ccc(Cc5cccc(N)c5)cc4)O[C@]32C(=O)CO)[C@@H]2CCC3=CC(=O)C=C[C@]3(C)[C@H]21` [comparative compound 1, reference compound], for which the “in-vitro inhibitory activity on the proliferation of mouse B cells” value in assay [3] was “relatively the weakest inhibitory activity”. In assay [2], this molecule displayed an EC50 of 0.956 nM.

The IC50 is the concentration that gives 50% inhibition. In assay [1], `C[C@@H]1C[C@H]2[C@@H]3C[C@H](F)C4=CC(=O)C=C[C@]4(C)[C@@]3(F)[C@@H](O)C[C@]2(C)[C@@]1(OC(=O)CCO)C(=O)SCF` [D-5] had an EC50 of 1.3 nM and an Emax of 132%. Also, in assay [1] (setting [5]), the “maximum agonistic activity (Emax)” value is listed as “superior to dexamethasone”. In addition, the IC50 in assay [3] amounted to 0.312 nM. Moreover, in assay [2], the “in vitro activation activity on the glucocorticoid receptor in the cells” value is “superior to comparative compound 1” and the EC50 came out at 0.154 nM.

For `C[C@]12C=CC(=O)C=C1[C@@H](F)C[C@H]1[C@@H]3CC[C@](OC(=O)c4ccc(F)c(N)c4)(C(=O)SCF)[C@@]3(C)C[C@H](O)[C@@]12F` [A-1], in assay [3], half-maximal inhibition (IC50) required 0.032 nM and the “in-vitro inhibitory activity on the proliferation of mouse B cells” value was “most strongest inhibitory activity”. In assay [4] (GRE reporter gene, HEK293T cells, 18-20 h incubation), this molecule returned an EC50 of 0.2 nM. Further, in assay [4] (HEK-293T, read-out: Emax), the Emax came out at 102%. Moreover, in assay [4] (setting [5]), the “maximum agonistic effect (Emax)” value is on record as “superior to dexamethasone”. For the same molecule, in assay [2], the “in vitro activation activity on the glucocorticoid receptor in the cells” value is “superior to comparative compound 1” and the EC50 is 0.0097 nM.

With `C[C@H]1C[C@@]2(C)[C@@H](C[C@H]3O[C@@H](c4ccc(Cc5cccc(N)c5)cc4)O[C@]32C(=O)CO)[C@@H]2CCC3=CC(=O)C=C[C@]3(C)[C@H]21` [Comparative example 1], the IC50 in assay [3] was 0.825 nM.
